Laboratory results from PubChem BioAssay (NCI).
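Tested at 5 concentrations; 48 h exposure; 96-well plates; endpoints linearly interpolated, else capped at highest concentration. GI50 = concentration required for 50% inhibition of growth. TGI marks complete inhibition of growth.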

Key:
Assay in all cases: DTP human tumour cell line panel, 48 h
A498 renal = tested on: A498 renal
BT-549 breast = tested on: BT-549 breast
CAKI-1 renal = tested on: CAKI-1 renal
CCRF-CEM leukemia = tested on: CCRF-CEM leukemia
COLO 205 colon = tested on: COLO 205 colon
HCT-116 colon = tested on: HCT-116 colon
HL-60(TB) leukemia = tested on: HL-60(TB) leukemia
HOP-62 NSCLC = tested on: HOP-62 NSCLC
HOP-92 NSCLC = tested on: HOP-92 NSCLC
HS 578T breast = tested on: HS 578T breast
HT29 colon = tested on: HT29 colon
K-562 leukemia = tested on: K-562 leukemia
MCF7 breast = tested on: MCF7 breast
NCI-H460 lung = tested on: NCI-H460 lung
NCI/ADR-RES ovarian = tested on: NCI/ADR-RES ovarian
OVCAR-3 ovarian = tested on: OVCAR-3 ovarian
OVCAR-4 ovarian = tested on: OVCAR-4 ovarian
PC-3 prostate = tested on: PC-3 prostate
RXF 393 renal = tested on: RXF 393 renal
SF-268 CNS = tested on: SF-268 CNS
SF-295 CNS = tested on: SF-295 CNS
SK-MEL-28 melanoma = tested on: SK-MEL-28 melanoma
SK-MEL-5 melanoma = tested on: SK-MEL-5 melanoma
SK-OV-3 ovarian = tested on: SK-OV-3 ovarian
SN12C renal = tested on: SN12C renal
SNB-19 CNS = tested on: SNB-19 CNS
SNB-75 CNS = tested on: SNB-75 CNS
SR leukemia = tested on: SR leukemia
SW-620 colon = tested on: SW-620 colon
T-47D breast = tested on: T-47D breast
TK-10 renal = tested on: TK-10 renal
UACC-257 melanoma = tested on: UACC-257 melanoma
UACC-62 melanoma = tested on: UACC-62 melanoma
UO-31 renal = tested on: UO-31 renal
786-0 renal = tested on: 786-0 renal
DU-145 prostate = tested on: DU-145 prostate
EKVX NSCLC = tested on: EKVX NSCLC
HCC-2998 colon = tested on: HCC-2998 colon
KM12 colon = tested on: KM12 colon
LOX IMVI melanoma = tested on: LOX IMVI melanoma
M14 melanoma = tested on: M14 melanoma
MALME-3M melanoma = tested on: MALME-3M melanoma
MDA-MB-435 = tested on: MDA-MB-435
NCI-H226 lung = tested on: NCI-H226 lung
OVCAR-5 ovarian = tested on: OVCAR-5 ovarian
OVCAR-8 ovarian = tested on: OVCAR-8 ovarian
SK-MEL-2 melanoma = tested on: SK-MEL-2 melanoma
A549 NSCLC = tested on: A549 NSCLC
ACHN renal = tested on: ACHN renal
HCT-15 colon = tested on: HCT-15 colon
IGROV1 ovarian = tested on: IGROV1 ovarian
MDA-MB-231 breast = tested on: MDA-MB-231 breast
NCI-H23 lung = tested on: NCI-H23 lung
NCI-H522 lung = tested on: NCI-H522 lung
RPMI-8226 leukemia = tested on: RPMI-8226 leukemia
SF-539 CNS = tested on: SF-539 CNS
U251 CNS = tested on: U251 CNS

For `CC(C)CCCC(C)[C@H]1CC[C@H]2N=C(NCc3ccccc3)CCC[C@]12C` (some centres not stated), the TGI (A498 renal) was 4.77 µM, the TGI (BT-549 breast) was 8.19 µM and the TGI (CAKI-1 renal) was 5.65 µM. For the same compound, the TGI (CCRF-CEM leukemia) was 5.42 µM, the TGI (COLO 205 colon) was 2.77 µM and the TGI (HCT-116 colon) was > 100 µM. For the same compound, the TGI (HL-60(TB) leukemia) was 7.63 µM, the TGI (HOP-62 NSCLC) was 8.56 µM and the TGI (HOP-92 NSCLC) was 5.67 µM. For the same compound, the TGI (HS 578T breast) was 9.48 µM, the TGI (HT29 colon) was 3.17 µM and the TGI (K-562 leukemia) was 3.23 µM. The TGI (MCF7 breast) was 3.29 µM, the TGI (NCI-H460 lung) was 3.34 µM and the TGI (NCI/ADR-RES ovarian) was 3.15 µM. The TGI (OVCAR-3 ovarian) was 5.33 µM, the TGI (OVCAR-4 ovarian) was 8.75 µM and the TGI (PC-3 prostate) was 4.93 µM. The TGI (RXF 393 renal) was 3.14 µM, the TGI (SF-268 CNS) was 8.92 µM and the TGI (SF-295 CNS) was 3.62 µM. It also gave a TGI (SK-MEL-28 melanoma) of 2.96 µM, a TGI (SK-MEL-5 melanoma) of 3.06 µM and a TGI (SK-OV-3 ovarian) of 20.1 µM. It also gave a TGI (SN12C renal) of 3.62 µM, a TGI (SNB-19 CNS) of 8.75 µM and a TGI (SNB-75 CNS) of 3.52 µM. It also gave a TGI (SR leukemia) of 7.84 µM, a TGI (SW-620 colon) of 4.45 µM and a TGI (T-47D breast) of 8.01 µM. For the same compound, the TGI (TK-10 renal) was 5.45 µM, the TGI (UACC-257 melanoma) was 5.24 µM and the TGI (UACC-62 melanoma) was 3.48 µM. It also gave a TGI (UO-31 renal) of 8.29 µM.

In the case of `COc1ccc(OC)c2c3c([nH]c12)C(=O)Nc1nc(N)nc(N)c1C3`, the TGI (786-0 renal) is reported as > 100 µM, the TGI (BT-549 breast) is reported as > 100 µM and the TGI (DU-145 prostate) is reported as > 100 µM. For the same compound, the TGI (EKVX NSCLC) was > 100 µM, the TGI (HCC-2998 colon) was > 100 µM and the TGI (HOP-92 NSCLC) was > 100 µM. The TGI (HT29 colon) was 4.49 µM, the TGI (KM12 colon) was > 100 µM and the TGI (LOX IMVI melanoma) was > 100 µM. The TGI (M14 melanoma) was > 100 µM, the TGI (MALME-3M melanoma) was > 100 µM and the TGI (MDA-MB-435) was > 100 µM. For the same compound, the TGI (NCI-H226 lung) was > 100 µM, the TGI (OVCAR-3 ovarian) was > 100 µM and the TGI (OVCAR-4 ovarian) was > 100 µM. The TGI (OVCAR-5 ovarian) was > 100 µM, the TGI (OVCAR-8 ovarian) was > 100 µM and the TGI (RXF 393 renal) was > 100 µM. The TGI (SK-MEL-2 melanoma) was > 100 µM, the TGI (SK-MEL-28 melanoma) was > 100 µM and the TGI (SK-OV-3 ovarian) was > 100 µM. For the same compound, the TGI (SW-620 colon) was > 100 µM, the TGI (T-47D breast) was > 100 µM and the TGI (TK-10 renal) was > 100 µM. The TGI (UACC-257 melanoma) was > 100 µM.

Work on `CN1CCN(Cc2cc(NC(=O)c3cccc(C#Cc4cccc5[nH]nc(N)c45)c3)cc(C(F)(F)F)c2)CC1` yielded a GI50 (786-0 renal) of 1.91 µM, a TGI (786-0 renal) of 3.39 µM and a GI50 (A498 renal) of 1.01 µM. The TGI (A498 renal) was 2.22 µM, the GI50 (A549 NSCLC) was 1.83 µM and the TGI (A549 NSCLC) was 3.28 µM. The GI50 (ACHN renal) was 1.66 µM, the TGI (ACHN renal) was 3.02 µM and the GI50 (BT-549 breast) was 1.97 µM. It also gave a TGI (BT-549 breast) of 3.62 µM, a GI50 (CAKI-1 renal) of 1.68 µM and a TGI (CAKI-1 renal) of 3.06 µM. For the same compound, the GI50 (COLO 205 colon) was 1.53 µM, the TGI (COLO 205 colon) was 2.98 µM and the GI50 (DU-145 prostate) was 1.7 µM. The TGI (DU-145 prostate) was 3.07 µM, the GI50 (EKVX NSCLC) was 1.75 µM and the TGI (EKVX NSCLC) was 3.26 µM. It also gave a GI50 (HCC-2998 colon) of 1.99 µM, a TGI (HCC-2998 colon) of 3.66 µM and a GI50 (HCT-15 colon) of 1.81 µM. For the same compound, the TGI (HCT-15 colon) was 3.37 µM, the GI50 (HL-60(TB) leukemia) was 1.89 µM and the TGI (HL-60(TB) leukemia) was 4.42 µM. The GI50 (HOP-62 NSCLC) was 1.55 µM, the TGI (HOP-62 NSCLC) was 3 µM and the GI50 (HOP-92 NSCLC) was 1.24 µM. The TGI (HOP-92 NSCLC) was 2.63 µM, the GI50 (HT29 colon) was 1.53 µM and the TGI (HT29 colon) was 2.93 µM. The GI50 (IGROV1 ovarian) was 2.05 µM, the TGI (IGROV1 ovarian) was 4.07 µM and the GI50 (KM12 colon) was 1.32 µM. For the same compound, the TGI (KM12 colon) was 2.67 µM, the GI50 (M14 melanoma) was 1.35 µM and the TGI (M14 melanoma) was 2.9 µM. It also gave a GI50 (MALME-3M melanoma) of 1.23 µM, a TGI (MALME-3M melanoma) of 2.69 µM and a GI50 (MCF7 breast) of 1.65 µM. It also gave a TGI (MCF7 breast) of 3.26 µM, a GI50 (MDA-MB-231 breast) of 1.38 µM and a TGI (MDA-MB-231 breast) of 2.73 µM. For the same compound, the GI50 (MDA-MB-435) was 1.48 µM, the TGI (MDA-MB-435) was 2.9 µM and the GI50 (NCI-H23 lung) was 1.72 µM. For the same compound, the TGI (NCI-H23 lung) was 3.4 µM, the GI50 (NCI-H460 lung) was 1.67 µM and the TGI (NCI-H460 lung) was 3.06 µM. The GI50 (NCI-H522 lung) was 1.74 µM, the TGI (NCI-H522 lung) was 3.34 µM and the GI50 (NCI/ADR-RES ovarian) was 2.02 µM. It also gave a TGI (NCI/ADR-RES ovarian) of 4.2 µM, a GI50 (OVCAR-3 ovarian) of 1.92 µM and a TGI (OVCAR-3 ovarian) of 3.56 µM. The GI50 (OVCAR-4 ovarian) was 1.59 µM, the TGI (OVCAR-4 ovarian) was 3.97 µM and the GI50 (OVCAR-5 ovarian) was 1.5 µM. It also gave a TGI (OVCAR-5 ovarian) of 2.98 µM, a GI50 (OVCAR-8 ovarian) of 1.85 µM and a TGI (OVCAR-8 ovarian) of 3.62 µM. It also gave a GI50 (PC-3 prostate) of 1.81 µM, a TGI (PC-3 prostate) of 3.52 µM and a GI50 (RPMI-8226 leukemia) of 2.12 µM. The TGI (RPMI-8226 leukemia) was 4.62 µM, the GI50 (RXF 393 renal) was 1.46 µM and the TGI (RXF 393 renal) was 2.83 µM. The GI50 (SF-268 CNS) was 1.53 µM, the TGI (SF-268 CNS) was 3.15 µM and the GI50 (SF-539 CNS) was 1.17 µM. The TGI (SF-539 CNS) was 2.43 µM, the GI50 (SK-MEL-2 melanoma) was 1.72 µM and the TGI (SK-MEL-2 melanoma) was 3.4 µM. The GI50 (SK-MEL-28 melanoma) was 1.56 µM, the TGI (SK-MEL-28 melanoma) was 2.94 µM and the GI50 (SK-MEL-5 melanoma) was 1.7 µM. The TGI (SK-MEL-5 melanoma) was 3.1 µM, the GI50 (SK-OV-3 ovarian) was 1.94 µM and the TGI (SK-OV-3 ovarian) was 3.54 µM. For the same compound, the GI50 (SN12C renal) was 1.66 µM, the TGI (SN12C renal) was 3.13 µM and the GI50 (SNB-75 CNS) was 1.5 µM. The TGI (SNB-75 CNS) was 2.92 µM, the GI50 (SW-620 colon) was 1.5 µM and the TGI (SW-620 colon) was 2.89 µM. The GI50 (TK-10 renal) was 1.96 µM, the TGI (TK-10 renal) was 3.38 µM and the GI50 (U251 CNS) was 1.81 µM. It also gave a TGI (U251 CNS) of 3.22 µM, a GI50 (UACC-257 melanoma) of 1.83 µM and a TGI (UACC-257 melanoma) of 3.39 µM. It also gave a GI50 (UACC-62 melanoma) of 1.69 µM, a TGI (UACC-62 melanoma) of 3.22 µM and a GI50 (UO-31 renal) of 1.71 µM. The TGI (UO-31 renal) was 3.16 µM.

In the case of `C=C(C)[C@@H]1CC[C@]2(C(=O)OCCOCCOCC[P+](c3ccccc3)(c3ccccc3)c3ccccc3)CC[C@]3(C)[C@H](CC[C@@H]4[C@@]5(C)CC[C@H](OC(=O)C(Cl)Cl)C(C)(C)[C@@H]5CC[C@]43C)[C@@H]12`, the GI50 (A498 renal) is reported as 0.225 µM, the TGI (A498 renal) is reported as 0.734 µM and the GI50 (HS 578T breast) is reported as 0.317 µM. For the same compound, the TGI (HS 578T breast) was 1.88 µM, the GI50 (NCI/ADR-RES ovarian) was 1.54 µM and the TGI (NCI/ADR-RES ovarian) was 9 µM.

`Nc1nc(SC2CCCCC2)nc2c1ncn2C1OC(CO)C(O)C1O` (configuration not stated) gave a GI50 (M14 melanoma) of 14.8 µg/mL, a GI50 (NCI-H522 lung) of 96.6 µg/mL and a GI50 (SNB-75 CNS) of 69.8 µg/mL.
